US5530141A, “2,4-diaryl-1,3-dithiolanes; 2,4-diaryl-1,3-dioxolanes; 2,4-diaryl-1,3-oxathiolanes; and 2,5-diaryl-1,3-oxathiolanes for the treatment of disorders mediated by platelet activating factor or products of 5-lipoxygenase” (Center for Innovative Technology, priority 1992, dated 1996)

Assays:
RBL 5-LO = target: T1, RBL 5-LO (Rattus norvegicus, UniProt P12527); test: RBL 5-LO inhibition (Table 2); assay type: biochemical; conditions: unit inferred
T1 construct: cytosol 5-lipoxygenase of rat basophilic leukemia cells (RBL); endogenous in cells; host or cells: rat basophilic leukemia (RBL) cells
T1 sequence (P12527 1-673): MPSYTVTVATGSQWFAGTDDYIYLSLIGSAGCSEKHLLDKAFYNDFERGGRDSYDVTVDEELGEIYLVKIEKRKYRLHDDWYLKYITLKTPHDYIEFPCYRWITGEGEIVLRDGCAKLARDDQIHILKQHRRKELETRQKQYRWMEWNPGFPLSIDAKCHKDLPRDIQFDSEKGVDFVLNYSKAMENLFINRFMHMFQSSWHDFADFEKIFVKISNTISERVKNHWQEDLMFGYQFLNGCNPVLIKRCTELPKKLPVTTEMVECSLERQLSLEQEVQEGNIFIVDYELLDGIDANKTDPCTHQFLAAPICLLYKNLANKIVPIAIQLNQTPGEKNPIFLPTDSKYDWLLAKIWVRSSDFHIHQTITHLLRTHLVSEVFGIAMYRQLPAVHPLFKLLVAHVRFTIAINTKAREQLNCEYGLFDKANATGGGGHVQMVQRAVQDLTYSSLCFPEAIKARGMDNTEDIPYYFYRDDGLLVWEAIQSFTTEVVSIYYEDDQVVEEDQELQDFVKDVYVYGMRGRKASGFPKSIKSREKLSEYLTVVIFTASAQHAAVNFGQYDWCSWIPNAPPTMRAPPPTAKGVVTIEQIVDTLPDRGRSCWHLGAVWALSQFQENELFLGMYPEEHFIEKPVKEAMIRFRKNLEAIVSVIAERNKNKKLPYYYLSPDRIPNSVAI
Excerpt: A wide variety of biological assays have also been used to evaluate the ability of a compound to inhibit the enzyme 5-lipoxygenase. For example, a cytosol 5-lipoxygenase of rat basophilic leukemia cells (RBL) has been widely utilized in studies on leukotriene biosynthesis. Compounds that inhibit 5-lipoxygenase decrease the levels of leukotrienes.

PAF receptor = conditions: cited from earlier work
5-lipoxygenase = conditions: cited from earlier work
[1] = target: T2, specific receptors on human platelet membranes (PAF receptors) (Homo sapiens, UniProt P25105); test: [3H]PAF binding inhibition on human platelet membranes (Table 1, PAF); conditions: [3H]PAF 0.3 nM, pH 7.0, 4 h, 0° C
T2 construct: Human platelet membranes were prepared from platelet concentrates obtained from the American Red Cross Blood Services; from tissue; host or cells: human platelets (concentrates from American Red Cross Blood Services, Dedham, Mass.), membrane fractions A and B
Method: Human platelet membranes were prepared from platelet concentrates obtained from the American Red Cross Blood Services (Dedham, Mass.). After several washes with platelet wash solution (150 mM NaCl, 10 mM Tris, and 2 mM EDTA, pH 7.5), the platelet pellets were resuspended in 5 mM MgCl2, 10 mM Tris, and 2 mM EDTA at pH 7.0. The cells were then quickly frozen with liquid nitrogen and thawed slowly at room temperature. The freezing and thawing procedure was repeated at least three times. For further fractionation of membrane fragments, the lysed membrane suspension was layered over the top of a discontinous sucrose density gradient of 0.25, 1.03, and 1.5M sucrose prepared in 10 mM MgCl2, 10 mM Tris and 2 mM EDTA, pH 7.0, and centrifuged at 63,500×g for 2 hr. The membrane fractions banding between 0.25 and 1.03M (membrane A) and between 1.03 and 1.5M (membrane B) were collected separately. The protein concentration of the membrane preparations was determined by Lowry's method with bovine serum albumin (BSA) as the standard. The membranes were then separated into smaller fractions (4 ml each) and stored at -80° C. and thawed before use.
b) [^3 H]PAF Binding inhibition:
The ability of [^3 H]PAF to bind to specific receptors on human platelet membranes was evaluated at optimal conditions at pH 7.0 and in the presence of 10 mM MgCl2. Membrane protein (100 ug) was added to a final 0.5 ml solution containing 0.15 pmol (0.3 nM concentration) of [^3 H]PAF and a known amount of unlabeled PAF or PAF receptor antagonist in 10 mM MgCl2, 10 mM Tris and 0.25% BSA at pH 7.0. After incubation for four hours at 0° C., the bound and unbound [^3 H]PAF were then separated through a Whatman GF/C glass fiber filter under vacuum. No degradation of filter bound [^3 H]PAF has been detected under this assay condition. The nonspecific binding was defined as the total binding in the presence of excess unlabeled PAF (1 mM) where no further displacement was found with higher concentrations of either unlabeled PAF or PAF analogs or PAF receptor antagonists. The specific binding was defined as the difference between total binding and nonspecific binding.
To determine the relative potency of tested compounds, [^3 H]PAF binding in the presence of inhibitors was normalized in terms of percent inhibition by assigning the total binding in the absence of inhibitors as 0% inhibition and the total binding in the presence of 1 mM unlabeled PAF as 100%. The percent inhibition by the compound can be calculated by the formula expressed below:
% inhibition=[(Total binding-total binding in the presence of
compound)/nonspecific binding]×100%
The IC50 was calculated as the concentration of the inhibitor necessary to obtain 50% inhibition of the specific [^3 H]PAF binding and was calculated by a nonlinear regression computer software program, GraphPad Inplot, version 3.0 (GraphPad software, San Diego, Calif.). Table 1 provides the IC50 values for a number of 2,4-diaryl-1,3-dithiolanes.

5-LO = target: T3, 5-LO (Rattus norvegicus, UniProt P12527); test: 5-LO inhibition (Table 1); assay type: biochemical; conditions: for inhibition at 3 µM: read-out: 5-LO, percent @ 3 μM
T3 sequence (P12527 1-673): T1 sequence (P12527 1-673)

T2 sequence (P25105 whole entry): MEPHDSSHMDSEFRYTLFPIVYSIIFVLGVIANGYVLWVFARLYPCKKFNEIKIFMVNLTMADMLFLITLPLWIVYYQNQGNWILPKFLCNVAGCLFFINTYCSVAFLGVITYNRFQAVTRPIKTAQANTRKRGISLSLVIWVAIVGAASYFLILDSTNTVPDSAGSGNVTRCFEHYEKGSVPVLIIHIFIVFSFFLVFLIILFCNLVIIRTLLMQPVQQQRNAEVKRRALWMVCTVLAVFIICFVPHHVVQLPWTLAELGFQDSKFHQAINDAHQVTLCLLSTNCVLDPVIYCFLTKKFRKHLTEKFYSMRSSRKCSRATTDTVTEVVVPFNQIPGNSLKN

**Q.** Which IC50 (RBL 5-LO) does the source give for `COc1cc(C2SCC(c3cc(OC)c(OC)c(OC)c3)S2)cc(CN(O)C(N)=O)c1OC` (stereo not drawn) here?
**A.** 1.44 µM

**Q.** Which IC50 (RBL 5-LO) does the source give for `COc1cc(C2SCC(c3cc(OC)c(OC)c(OC)c3)S2)cc(CN(O)C(C)=O)c1OC` (stereo not drawn) here?
**A.** 0.85 µM

**Q.** With `CCCCCCCCCCCCCCCCCCNC(=O)OCC(COP(=O)([O-])OCC[n+]1ccsc1)OC` (racemic) [CV-3988, rac-3-(N-n-octadecyl-carbamoyloxy-w-methoxypropyl-2-thiazolioethyl phosphate] as the compound, how does the “PAF receptor antagonist activity” value (PAF receptor) read?
**A.** PAF receptor antagonist properties

**Q.** With `C=CCOc1c(NC(=O)N(O)C(C)(C)C)cc([C@H]2O[C@@H](c3cc(OC)c(OC)c(OC)c3)CS2)cc1OC` (relative stereo) as the compound, how does the IC50 (RBL 5-LO) read?
**A.** 0.25 µM

**Q.** For `C=CCOc1c(NC(=O)N(O)C(C)(C)C)cc([C@@H]2O[C@@H](c3cc(OC)c(OC)c(OC)c3)CS2)cc1OC` (relative stereo), which IC50 (RBL 5-LO) is on record?
**A.** 0.41 µM

**Q.** Which results are given for `COc1cc([C@H]2CC[C@H](c3cc(OC)c(OC)c(OC)c3)S2)cc(OC)c1OC` (relative stereo) [L-653,150, trans-2,5-bis-(3,4,5-trimethoxyphenyl)tetrahydrothiophene]?
**A.** effect on the enzyme 5-lipoxygenase (5-lipoxygenase): moderate inhibitor of 5-lipoxygenase; PAF receptor antagonist activity (PAF receptor): potent PAF antagonist

**Q.** For `CCCOc1c(OC)cc([C@H]2CC[C@H](c3cc(OC)c(OC)c(OC)c3)O2)cc1S(C)(=O)=O` (relative stereo) [L-659,989, trans-2-(3-methoxy-4-propoxyphenyl-5-methylsulfonyl)-5-(3,4,5-trimethoxyphenyl)tetrahydrofuran], which “PAF receptor antagonist activity” value (PAF receptor) is on record?
**A.** orally active, potent, competitive PAF receptor antagonist

**Q.** And the “equilibrium inhibition constant relative to trans-L-652,731” value (PAF receptor; greater than that of trans-L-652,731)?
**A.** 10 times

**Q.** For `COc1cc([C@H]2SC[C@H](c3cc(OC)c(OC)c(OC)c3)S2)cc(NC(=O)N(C)O)c1OC` (relative stereo) [compound 1, Cis and Trans-2-[3,4-dimethoxy-5-(N-hydroxy-N-methylureidyl)phenyl]-4-(3,4,5-trimethoxyphenyl)-1,3-dithiolane], which IC50 [1] is on record?
**A.** 0.259 µM

**Q.** And the IC50 (5-LO)?
**A.** 0.22 µM

**Q.** For `COc1cc([C@H]2SC[C@H](c3cc(OC)c(OC)c(OC)c3)S2)cc(NC(=S)N(C)O)c1OC` (relative stereo) [compound 2], which IC50 (5-LO) is on record?
**A.** 0.28 µM

**Q.** Which results are given for `COc1cc([C@H]2SC[C@H](c3cc(OC)c(OC)c(OC)c3)S2)cc(NC(=O)N(O)C(C)(C)C)c1OC` (relative stereo) [compound 4, Cis and Trans-2-[3,4-dimethoxy-5-(N-t-butyl-N-hydroxyureidyl)phenyl]-4-(3,4,5-trimethoxyphenyl)-1,3-dithiolane]?
**A.** IC50 [1]: 0.798 µM; IC50 (5-LO): 0.32 µM

**Q.** For `C=CCOc1c(NC(=O)N(C)O)cc([C@H]2SC[C@H](c3cc(OC)c(OC)c(OC)c3)S2)cc1OC` (relative stereo) [compound 5, Trans-2-[4-allyloxy-3-methoxy-5-(N-hydroxy-N-methylureidyl)phenyl]-4-(3,4,5-trimethoxyphenyl)-1,3-dithiolane], which IC50 [1] is on record?
**A.** 0.561 µM

**Q.** What about the IC50 (5-LO) of the same compound?
**A.** 0.17 µM

**Q.** Which results are given for `C=CCOc1c(NC(=O)N(O)C(C)(C)C)cc([C@H]2SC[C@H](c3cc(OC)c(OC)c(OC)c3)S2)cc1OC` (relative stereo) [compound 6, Trans-2-[4-allyloxy-3-methoxy-5-(N-t-butyl-N-hydroxyureidyl)phenyl]-4-(3,4,5-trimethoxyphenyl)-1,3-dithiolane]?
**A.** IC50 [1]: 0.543 µM; IC50 (5-LO): 0.57 µM

**Q.** With `COc1cc([C@H]2CS[C@H](c3cc(OC)c(OCCSc4ccc(O)cc4)c([N+](=O)[O-])c3)S2)cc(OC)c1OC` (relative stereo) [compound 7, Trans-2-[4-{2-(4'-hydroxyphenylthio)ethoxy}-3-methoxy-5-nitrophenyl]-4-(3,4,5-trimethoxyphenyl)-1,3-dithiolane] as the compound, how does the inhibition at 3 µM (5-LO) read?
**A.** 57%

**Q.** Which inhibition at 3 µM (5-LO) does the source give for `COc1cc([C@H]2SC[C@H](c3cc(OC)c(OC)c(OC)c3)S2)cc(N)c1OCCSc1ccc(O)cc1` (relative stereo) [compound 8, Trans-2-[5-amino-4-{2-(4'-hydroxyphenylthio)ethoxy}-3-methoxyphenyl]-4-(3,4,5-trimethoxyphenyl)-1,3-dithiolane] here?
**A.** 41%

**Q.** For `COc1cc([C@H]2SC[C@H](c3cc(OC)c(OC)c(OC)c3)S2)cc(NC(=O)N(C)O)c1OCCSc1ccc(O)cc1` (relative stereo) [compound 9, Trans-2-[5-(N-hydroxy-N-methylureidyl)-4-{2-(4'-hydroxy-phenylthio)ethoxy}-3-methoxyphenyl]-4-(3,4,5-trimethoxyphenyl)-1,3-dithiolane], which IC50 (5-LO) is on record?
**A.** 0.12 µM

**Q.** Which inhibition at 3 µM (5-LO) does the source give for `COc1cc([C@H]2SC[C@H](c3cc(OC)c(OC)c(OC)c3)S2)cc(NC(=O)N(O)c2ccc(Cl)cc2)c1OCCSc1ccc(O)cc1` (relative stereo) [compound 10, Trans-2-[5-(N-(p-chlorophenyl)-N-hydroxyureidyl)-4-{2-(4'-hydroxy-phenylthio)ethoxy}-3-methoxyphenyl]-4-(3,4,5-trimethoxyphenyl)-1,3-dithiolane] here?
**A.** 64%

**Q.** Which IC50 (5-LO) does the source give for `COc1cc([C@H]2SC[C@H](c3cc(OC)c(OC)c(OC)c3)S2)cc(NC(=O)N(C)O)c1OCCSc1ccc(C#N)cc1` (relative stereo) [compound 13, Trans-2-[5-(N-hydroxy-N-methylureidyl)-4-{2-(4'-cyano-phenylthio)ethoxy}-3-methoxyphenyl]-4-(3,4,5-trimethoxyphenyl)-1,3-dithiolane] here?
**A.** 0.092 µM

**Q.** With `COc1cc([C@H]2CS[C@H](c3cc(OC)c(OCCSc4ccc(O)cc4)c(N(C)C)c3)S2)cc(OC)c1OC` (relative stereo) [compound 14, Trans-2-[5-(N,N-dimethylamino)-4-{2-(4'-hydroxyphenylthio)ethoxy}-3-methoxyphenyl]-4-(3,4,5-trimethoxyphenyl)-1,3-dithiolane] as the compound, how does the inhibition at 3 µM (5-LO) read?
**A.** 25%

**Q.** Which results are given for `CCCCN(O)C(=O)Nc1cc(C2SCC(c3cc(OC)c(OC)c(OC)c3)S2)cc(OC)c1OC` (stereo not drawn) [compound 3, Trans-2-[3,4-dimethoxy-5-(N-n-butyl-N-hydroxyureidyl)phenyl]-4-(3,4,5-trimethoxyphenyl)-1,3-dithiolane]?
**A.** IC50 [1]: 0.0678 µM; IC50 (5-LO): 0.24 µM

**Q.** For `C=CCC1=C[C@@]2(OC)C(=CC1=O)O[C@H](c1ccc(OC)c(OC)c1)[C@H]2C` [kadsurenone], which “PAF receptor antagonist activity” value (PAF receptor) is on record?
**A.** potent, specific and competitive inhibitor of PAF activity at the receptor level
